Reference: patent US20080194609A1, “Chemical Compound and Its Use” (Bayer HeathCare AG, priority 2004, published 2008)
Like-named read-outs stand apart in the source and are kept apart here.

Columns and labels:
[1] = target: T1, CETP (enriched CETP fraction obtained from human plasma) (Homo sapiens, UniProt P11597); test: CETP fluorescence test with enriched CETP; format: biochemical; settings: 37° C., 4 hours, CE transfer between liposomes
T1 construct: CETP is obtained in partially purified form from human plasma; from tissue; host or cells: human plasma (d>1.21 g/ml bottom fraction; Phenyl-Sepharose, CM-Sepharose, Mono Q)
T1 sequence (P11597 18-493): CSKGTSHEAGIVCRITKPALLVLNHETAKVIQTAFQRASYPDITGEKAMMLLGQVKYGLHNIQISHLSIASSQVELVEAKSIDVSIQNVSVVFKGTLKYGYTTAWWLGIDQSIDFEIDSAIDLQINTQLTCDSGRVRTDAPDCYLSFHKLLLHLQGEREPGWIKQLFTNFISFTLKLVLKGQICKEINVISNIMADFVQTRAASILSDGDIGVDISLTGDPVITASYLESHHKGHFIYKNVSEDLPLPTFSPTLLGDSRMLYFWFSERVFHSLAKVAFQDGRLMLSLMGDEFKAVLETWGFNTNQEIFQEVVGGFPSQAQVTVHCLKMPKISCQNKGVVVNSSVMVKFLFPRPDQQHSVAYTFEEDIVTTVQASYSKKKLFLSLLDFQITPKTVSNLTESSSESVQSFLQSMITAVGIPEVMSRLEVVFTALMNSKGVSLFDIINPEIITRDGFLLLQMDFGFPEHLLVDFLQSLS
Method: (§1) CETP is obtained in partially purified form from human plasma by differential centrifugation and column chromatography and used for the test. To this end, human plasma is adjusted to a density of 1.21 g per ml using NaBr and centrifuged at 4° C. at 50 000 rpm for 18 h. The bottom fraction (d>1.21 g/ml) is applied to a Sephadex® Phenyl-Sepharose 4B (Pharmacia) column, washed with 0.15 M NaCl/0.001 M tris-HCl pH 7.4 and then eluted with distilled water. The CETP-active fractions are pooled, dialyzed against 50 mM sodium acetate pH 4.5 and applied to a CM-Sepharose® column (Pharmacia). The mixture is then eluted using a linear gradient (0-1 M NaCl). The pooled CETP fractions are dialyzed against 10 mM tris/HCl pH 7.4 and then further purified by chromatography on a Mono Q® column (Pharmacia).
Measurement of the CETP-catalyzed transfer of a fluorescent cholesterol ester between liposomes [modified according to the procedure of Bisgaier et al., J. Lipid Res. 34, 1625 (1993)]: […]
The change in the fluorescence at 485/535 nm is a measure of the CE transfer; the inhibition of the transfer in comparison to the control batch without substance is determined. […]

CETP [2] = target: T2, CETP (Homo sapiens, UniProt P11597); test: Ex vivo activity on transgenic hCETP mice (CETP activity in the serum); design: from tissue; host or cells: serum of transgenic hCETP mice (host Mus musculus) after oral dosing; settings: mouse, 3 mg/kg oral, cholesteryl ester transport
T2 sequence (P11597 18-493): T1 sequence (P11597 18-493)
Method: 10 μl of buffer and 2 μl of serum are added to 80 μl of test mix, and the mixture is incubated at 37° C. for 4 h.
The change in the fluorescence at 485/535 nm is a measure for the CE transfer; the inhibition of the transfer in comparison to the control batch without substance is determined.
To test for CETP-inhibitory activity, the substances are administered orally using a stomach tube to transgenic hCETP mice bred in-house [Dinchuk et al. BBA 1295-301 (1995)]. To this end, male animals are randomly assigned to groups having an equal number of animals, as a rule n=4, one day before the start of the experiment. Before administration of the substance, blood is taken from each mouse by puncture of the retro-orbital venous plexus for the determination of its basal CETP activity in the serum (T1). The test substance is then administered to the animals using the stomach tube. […]
After termination of the clotting, the blood samples are centrifuged and the serum is removed by pipette. For the determination of the CETP activity, the cholesteryl ester transport over 4 h is determined. […]
The differences in the cholesteryl ester transport [pM CE/h (T2)−pM CE/h (T1)] are calculated for each animal and averaged in the groups. […]

CETP in human plasma = target: T3, CETP in human plasma (Homo sapiens, UniProt P11597); test: CETP fluorescence test with human plasma; format: biochemical; settings: 86% v/v human plasma, 37° C., 24 h
T3 construct: tissue Sigma P9523; host or cells: human plasma (purchased, unfractionated)
T3 sequence (P11597 18-493): T1 sequence (P11597 18-493)
Method: For the production of the donor liposomes, 1 mg of cholesteryl 4,4-difluoro-5,7-dimethyl-4-bora-3a,4a-diaza-s-indacene-3-dodecanoate (cholesteryl BODIPY® FL C1-2, Molecular Probes) is dissolved in 600 μl of dioxane with 5.35 mg of triolein and 6.67 mg of phosphatidylcholine with gentle warming in an ultrasonic bath and this solution is added very slowly with ultrasonication to 63 ml of 50 mM tris/HCl, 150 mM NaCl, 2 mM EDTA buffer pH 7.3 at room temperature. The suspension is then ultrasonicated under an N2 atmosphere for 30 minutes in the Branson ultrasonic bath at about 50 watts, the temperature being kept at about 20° C.
6 μl (12% v/v) of donor liposomes and 1 μl (2% v/v) of a solution of the substance to be investigated in DMSO are added to 42 μl (86% v/v) of human plasma (Sigma P9523), and the mixture is incubated at 37° C. for 24 h.
The change in the fluorescence at 510/520 nm (gap width 2.5 nm) is a measure of the CE transfer; the inhibition of the transfer in comparison to the control batch without substance is determined. […]

CETP [3] = target: T2, CETP; test: CETP-SPA test; format: biochemical; design: CETP is obtained in partially purified form from human plasma; from tissue; host or cells: human plasma (d>1.21 g/ml bottom fraction; Phenyl-Sepharose, CM-Sepharose, Mono Q); settings: transfer of 3H-cholesterol ester from human HDL to biotinylated LDL, 37° C., 18 h
Method: as §1
50 ml of fresh human EDTA plasma is adjusted to a density of 1.12 using NaBr and centrifuged at 4° C. in a Ty 65 rotor at 50 000 rpm for 18 h. The upper phase is used for the obtainment of cold LDL. […]
For testing of the CETP activity, the transfer of ^3H-cholesterol ester from human HD lipoproteins to biotinylated LD lipoproteins is measured. The reaction is ended by addition of streptavidin-SPA® beads (Amersham) and the transferred radioactivity is determined directly in a liquid scintillation counter. […]

## O[C@H]1CC2(CC2)Cc2nc(C3CCCC3)c([C@@H](F)c3ccc(C(F)(F)F)cc3)c(C3CCCCC3)c21 [Example 1]
[1]
  IC50: 17 nM
CETP [2]; serum taken 16 h after administration, read-out: % inhibition at 3 mg/kg 16 h
  inhibition at 3 mg/kg: 74%
CETP [2]; serum taken 24 h after administration, read-out: % inhibition at 3 mg/kg 24 h
  inhibition at 3 mg/kg: 66%
CETP in human plasma
  IC50: 80 nM
CETP [3]
  IC50: 32 nM

## O[C@H]1CC2(CC2)Cc2nc(C3CCCC3)c([C@@H](F)c3ccc(C(F)(F)F)cc3)c(C3CCCC3)c21 [Example 1]
[1]
  IC50: 15 nM
CETP in human plasma
  IC50: 40 nM
CETP [3]
  IC50: 24 nM
